Assay results: patent US11202787B2, “Use of ACTH in assessment and prophylactic treatment of hypokalemia associated with glucocorticoid receptor modulator treatment of Cushing's syndrome patients” (Corcept Therapeutics, Inc., priority 2018, dated 2021)

Experiments:
[1] = tested on: ACTH; test: ACTH levels during mifepristone treatment of Cushing's syndrome patients; assay type: in vivo, human; conditions: for ACTH Visit Change Values from Baseline / Ratio of ACTH Visit Change Values from Baseline per Baseline (ACTH_CHG/ACTH Baseline): Mean ± SD
Text: The term “measuring the level,” in the context of cortisol, ACTH, mifepristone, or other compounds, refers to determining, detecting, or quantitating the amount, level, or concentration of, for example, cortisol, ACTH, mifepristone, or other compound in a sample obtained from a subject. Plasma or serum samples are often used for measuring ACTH or cortisol level.
The types of samples that are suitable for ACTH determination can be serum, plasma, saliva, urine, or any other biological fluid taken from a subject. In preferred embodiments, the sample is a serum sample, or is a plasma sample. The level of ACTH can be measured using various methods, including but not limited to, immunoassays, e.g., competitive immunoassay, radioimmunoassay (MA), immunofluorometric enzyme assay, and ELISA; competitive protein-binding assays; liquid chromatography (e.g., HPLC); and mass spectrometry, e.g., high-performance liquid chromatography/triple quadrupole-mass spectrometry (LC-MS/MS). Commercial kits for measuring ACTH are readily available, e.g., from Mayo clinic (Test ID: ACTH), Siemens Healthcare Global (Immulite® 2000 ACTH assay), and Roche Molecular Diagnostics (Catalog No. 03255751190). In preferred embodiments, ACTH levels are measured using a radioimmunoassay (RIA), most preferable a two-site MA, such as performed by Quest Diagnostics (Secaucus, N.J. 07094).
The Cushing's syndrome study reported herein was conducted in accordance with the Declaration of Helsinki and Good Clinical Practice (GCP) according to International Conference on Harmonization (ICH) guidelines.
Dosing Schedule Dosing was started with 300 mg of mifepristone once per day for 14 days. After 14 days, if no clinical improvement was seen but the drug was well tolerated, the dose of mifepristone was increased to 600 mg once per day. After 4 weeks of dosing at 600 mg once per day, if no clinical improvement was seen but the drug was well tolerated, the dose was increased to 900 mg once per day. Dose escalation was based on weight with the maximum dose no higher than 20 mg/kg/day. […] After 4 weeks of dosing at 900 mg once per day, if no clinical improvement was seen but the drug was well tolerated, the dose was increased to 1200 mg once per day. Study duration was 24 weeks.
Potassium levels were obtained on every subject at either screening or the pre-drug administration baseline visit, and then also at every scheduled post-baseline visit. Potassium levels post-baseline were therefore obtained as early as day 7 and through day 210 (week 30 was the last visit and was the 6 week follow-up visit). ACTH, and cortisol were measured at six visits (week 2 (day 14), week 6 (day 42), week 10 (day 70), week 16 (day 112), and week 24 (day 168) week 6 follow-up (day 210)).

[2] = tested on: Cushing's syndrome patients; conditions: cited from earlier work
[3] = tested on: psychotic major depression (PMD) subjects; test: Double blind psychotic major depression (PMD) trials: hypokalemia; assay type: in vivo, human
Text: Clinically meaningful hypokalemia (≤3.1) has been reported in 16 of 821 (1.9%) mifepristone treated subjects (12 in completed double blind PMD trials, and 4 in a completed Alzheimer's trial), and in 5 of 626 (0.8%) placebo treated subjects in completed PMD trials.

[4] = Day 210 (6 week follow-up), Hypokalemic
[5] = Day 210 (6 week follow-up), Non-Hypokalemic

## CC#C[C@]1(O)CC[C@H]2[C@@H]3CCC4=CC(=O)CCC4=C3[C@@H](c3ccc(N(C)C)cc3)C[C@@]21C [mifepristone, 11β-(4-dimethylaminophenyl)-17β-hydroxy-17α-(1-propynyl)-estra-4,9-dien-3-one]
[1]; 43 subjects with Cushing's disease
  ACTH increase during mifepristone treatment: about two-fold
[1]; Day 14, Hypokalemic
  ACTH Visit Change Values from Baseline: 60.8 ± 99.6 (8) ng/L
  Ratio of ACTH Visit Change Values from Baseline per Baseline (ACTH_CHG/ACTH Baseline): 1.87 ± 1.32 (8)
[1]; Day 14, Non-Hypokalemic
  ACTH Visit Change Values from Baseline: 30.6 ± 26.9 (38) ng/L
  Ratio of ACTH Visit Change Values from Baseline per Baseline (ACTH_CHG/ACTH Baseline): 1.77 ± 0.72 (38)
[1]; Day 42, Hypokalemic
  ACTH Visit Change Values from Baseline: 86.3 ± 58.2 (6) ng/L
  Ratio of ACTH Visit Change Values from Baseline per Baseline (ACTH_CHG/ACTH Baseline): 2.50 ± 0.61 (6)
[1]; Day 42, Non-Hypokalemic
  ACTH Visit Change Values from Baseline: 40.6 ± 54.7 (35) ng/L
  Ratio of ACTH Visit Change Values from Baseline per Baseline (ACTH_CHG/ACTH Baseline): 2.02 ± 0.97 (35)
[1]; Day 70, Hypokalemic
  ACTH Visit Change Values from Baseline: 211.8 ± 147.5 (6) ng/L
  Ratio of ACTH Visit Change Values from Baseline per Baseline (ACTH_CHG/ACTH Baseline): 4.08 ± 2.51 (6)
[1]; Day 70, Non-Hypokalemic
  ACTH Visit Change Values from Baseline: 49.2 ± 22.5 (30) ng/L
  Ratio of ACTH Visit Change Values from Baseline per Baseline (ACTH_CHG/ACTH Baseline): 2.06 ± 1.01 (30)
[1]; Day 112, Hypokalemic
  ACTH Visit Change Values from Baseline: 101.4 ± 159.6 (9) ng/L
  Ratio of ACTH Visit Change Values from Baseline per Baseline (ACTH_CHG/ACTH Baseline): 2.53 ± 1.49 (9)
[1]; Day 112, Non-Hypokalemic
  ACTH Visit Change Values from Baseline: 70.2 ± 82.2 (23) ng/L
  Ratio of ACTH Visit Change Values from Baseline per Baseline (ACTH_CHG/ACTH Baseline): 2.47 ± 1.87 (23)
[1]; Day 168, Hypokalemic
  ACTH Visit Change Values from Baseline: 151.2 ± 166.5 (5) ng/L
  Ratio of ACTH Visit Change Values from Baseline per Baseline (ACTH_CHG/ACTH Baseline): 3.30 ± 2.54 (5)
[1]; Day 168, Non-Hypokalemic
  ACTH Visit Change Values from Baseline: 48.2 ± 73.8 (37) ng/L
  Ratio of ACTH Visit Change Values from Baseline per Baseline (ACTH_CHG/ACTH Baseline): 2.08 ± 1.31 (37)
[1]; [4]
  ACTH Visit Change Values from Baseline: 113.7 ± 167.7 (3) ng/L
  Ratio of ACTH Visit Change Values from Baseline per Baseline (ACTH_CHG/ACTH Baseline): 1.36 ± 0.46 (3)
[1]; [5]
  ACTH Visit Change Values from Baseline: 13.4 ± 34.0 (37) ng/L
  Ratio of ACTH Visit Change Values from Baseline per Baseline (ACTH_CHG/ACTH Baseline): 1.33 ± 0.61 (37)
[1]; patients who did not experience hypokalemia
  rise in ACTH levels following an initial increase in mifepristone dose (FIG. 1): about 25 pg/mL
[2]; of 43 Cushing's syndrome patients (ACTH-dependent and ACTH-independent)
  patients with serum potassium levels less than 3.5 mEq/L: 22 patients
[2]; of the 22 hypokalemic of 43 patients
  patients with serum potassium levels less than 2.5 mEq/L (severe hypokalemia): 3 patients
[3]; 16 of 821 mifepristone treated subjects, PMD and Alzheimer's trials together
  Clinically meaningful hypokalemia (≤3.1): 1.9%
[3]; 61 of 782 mifepristone treated subjects
  Hypokalemia in the range of 2.4 to 3.4 mEq/L: 7.8%
[3]; completed double blind PMD trials
  Clinically meaningful hypokalemia (≤3.1), subjects: 12
